According to patent USRE39591E1, “6-O-substituted ketolides having antibacterial activity” (Abbott Laboratories, priority 1996, dated 2007):
Values after ≈ are worked out from the molar mass of the structure shown.

Test system: up to 32 different microorganisms
Test: in vitro antibacterial activity (MIC), agar dilution on Brain Heart Infusion (BHI) agar with Steers replicator
Assay type: cell-based
Details: unit assumed
Method: Representative compounds of the present invention were assayed in vitro for antibacterial activity as follows: Twelve petri dishes containing successive aqueous dilutions of the test compound mixed with 10 mL of sterilized Brain Heart Infusion (BHI) agar (Difco 0148-01-5) were prepared. Each plate was inoculated with 1:100 (or 1:10 for slow-growing strains, such as Micrococcus and Streptococcus) dilutions of up to 32 different microorganisms, using a Steers replicator block. The inoculated plates were incubated at 35°-37° C. for 20 to 24 hours. In addition, a control plate, using BHI agar containing no test compound, was prepared and incubated at the beginning and end of each test.
An additional plate containing a compound having known susceptibility patterns for the organisms being tested and belonging to the same antibiotic class as the test compound was also prepared and incubated as a further control, as well as to provide test-to-test comparability. Erythromycin A was used for this purpose.
After incubation, each plate was visually inspected. The minimum inhibitory concentration (MIC) was defined as the lowest concentration of drug yielding no growth, a slight haze, or sparsely isolated colonies on the inoculum spot as compared to the growth control.

Row | SMILES | MIC (organism code AA) | MIC (organism code BB) | MIC (organism code CC) | MIC (organism code DD) | MIC (organism code EE) | MIC (organism code FF) | MIC (organism code GG) | MIC (organism code HH) | MIC (organism code II) | MIC (organism code JJ) | MIC (organism code KK) | MIC (organism code LL) | MIC (organism code MM) | MIC (organism code NN) | MIC (organism code OO) | MIC (organism code PP) | MIC (organism code QQ) | MIC (organism code RR) | MIC (organism code SS) | MIC (organism code TT) | further results
1 | CCC1OC(=O)C(C)C(=O)C(C)C(OC2OC(C)CC(N(C)C)C2O)C(C)(OCC=Cc2cn(C)c(=O)n(C)c2=O)CC(C)C(=O)C(C)C2NC(=O)OC12C (stereo not drawn) [Example 293, Compound of Formula (IX): L is CO, T is NH, R is —CH2—CH═CH-(1,3-dimethyl-2,4-dioxo-5-pyrimidinyl)] | 0.39 µg/mL | 0.39 µg/mL | > 100 µg/mL | 0.39 µg/mL | 0.39 µg/mL | 0.39 µg/mL | > 100 µg/mL | 0.39 µg/mL | 0.1 µg/mL | 0.02 µg/mL | 0.05 µg/mL | 0.02 µg/mL | > 100 µg/mL | 0.78 µg/mL | 0.05 µg/mL | 0.2 µg/mL | > 100 µg/mL | 0.78 µg/mL | > 100 µg/mL | > 100 µg/mL | MIC (organism code UU): 12.5 µg/mL; MIC (organism code VV): 0.78 µg/mL; MIC (organism code WW): 16 µg/mL; MIC (organism code XX): 0.03 µg/mL; MIC (organism code YY): 0.03 µg/mL; MIC (organism code ZZ): > 128 µg/mL; MIC (organism code ZZA): 0.5 µg/mL
2 | CC[C@H]1OC(=O)[C@H](C)C(=O)[C@H](C)[C@@H](O[C@@H]2O[C@H](C)C[C@H](N(C)C)[C@H]2O)[C@@](C)(OCCNCCCc2ccccc2)C[C@@H](C)C(=O)[C@H](C)[C@H]2NC(=O)O[C@@]21C [Example 223, Compound of Formula (IX): L is CO, T is NH, R is —CH2CH2NHCH2CH2CH2Phenyl] | 0.2 µg/mL | 0.1 µg/mL | > 100 µg/mL | 0.2 µg/mL | 0.2 µg/mL | 0.2 µg/mL | > 100 µg/mL | 0.39 µg/mL | 0.05 µg/mL | ≤ 0.005 µg/mL | ≤ 0.005 µg/mL | ≤ 0.005 µg/mL | > 100 µg/mL | 0.1 µg/mL | 0.05 µg/mL | 0.2 µg/mL | 50 µg/mL | 0.2 µg/mL | 100 µg/mL | > 100 µg/mL | MIC (organism code UU): 3.1 µg/mL; MIC (organism code VV): 0.2 µg/mL; MIC (organism code WW): 4 µg/mL; MIC (organism code XX): 0.03 µg/mL; MIC (organism code YY): 0.03 µg/mL; MIC (organism code ZZ): > 128 µg/mL; MIC (organism code ZZA): 0.5 µg/mL
3 | CC[C@H]1OC(=O)[C@H](C)C(=O)[C@H](C)[C@@H](O[C@@H]2O[C@H](C)C[C@H](N(C)C)[C@H]2O)[C@@](C)(OCC#Cc2ccc(C(=O)Nc3ccccn3)o2)C[C@@H](C)C(=O)[C@H](C)[C@H]2NC(=O)O[C@@]21C [Example 256] | 0.05 µg/mL (≈ 0.0608 µM) | 0.05 µg/mL (≈ 0.0608 µM) | > 100 µg/mL | 0.05 µg/mL (≈ 0.0608 µM) | 0.05 µg/mL (≈ 0.0608 µM) | 0.02 µg/mL (≈ 0.0243 µM) | > 100 µg/mL | 0.1 µg/mL (≈ 0.122 µM) | 0.02 µg/mL (≈ 0.0243 µM) | 0.01 µg/mL (≈ 0.0122 µM) | 0.02 µg/mL (≈ 0.0243 µM) | 0.01 µg/mL (≈ 0.0122 µM) | 25 µg/mL (≈ 30.4 µM) | 0.2 µg/mL (≈ 0.243 µM) | 0.01 µg/mL (≈ 0.0122 µM) | 0.1 µg/mL (≈ 0.122 µM) | 100 µg/mL (≈ 122 µM) | 0.2 µg/mL (≈ 0.243 µM) | > 100 µg/mL | > 100 µg/mL | MIC (organism code UU): 1.56 µg/mL (≈ 1.9 µM); MIC (organism code VV): 0.05 µg/mL (≈ 0.0608 µM); MIC (organism code WW): 2 µg/mL (≈ 2.43 µM); MIC (organism code XX): 0.03 µg/mL (≈ 0.0365 µM); MIC (organism code YY): 0.03 µg/mL (≈ 0.0365 µM); MIC (organism code ZZ): 16 µg/mL (≈ 19.4 µM); MIC (organism code ZZA): 0.25 µg/mL (≈ 0.304 µM)
4 | CCC1OC(=O)C(C)C(=O)C(C)C(OC2OC(C)CC(N(C)C)C2O)C(C)(OCC(O)c2ccccc2)CC(C)C(=O)C(C)C2NC(=O)OC12C (single isomer, unassigned) [Example 261B] | 3.1 µg/mL (≈ 4.31 µM) | 3.1 µg/mL (≈ 4.31 µM) | > 100 µg/mL | 6.2 µg/mL (≈ 8.62 µM) | 3.1 µg/mL (≈ 4.31 µM) | 3.1 µg/mL (≈ 4.31 µM) | > 100 µg/mL | 6.2 µg/mL (≈ 8.62 µM) | 0.78 µg/mL (≈ 1.09 µM) | 0.39 µg/mL (≈ 0.543 µM) | 0.39 µg/mL (≈ 0.543 µM) | 0.39 µg/mL (≈ 0.543 µM) | > 100 µg/mL | 0.78 µg/mL (≈ 1.09 µM) | 0.39 µg/mL (≈ 0.543 µM) | 1.56 µg/mL (≈ 2.17 µM) | > 100 µg/mL | 6.2 µg/mL (≈ 8.62 µM) | > 100 µg/mL | > 100 µg/mL | MIC (organism code UU): 25 µg/mL (≈ 34.8 µM); MIC (organism code VV): 6.2 µg/mL (≈ 8.62 µM); MIC (organism code WW): 32 µg/mL (≈ 44.5 µM); MIC (organism code XX): 0.5 µg/mL (≈ 0.696 µM); MIC (organism code YY): 0.5 µg/mL (≈ 0.696 µM); MIC (organism code ZZ): > 128 µg/mL; MIC (organism code ZZA): 1 µg/mL (≈ 1.39 µM)
